Measured values reported in patent US9451768B2, “Biocidal compositions and methods of use” (priority 2009, dated 2016).

What was measured:
[1] = test system: oil field isolated anaerobic SRB consortium; experiment: Anaerobic bacteria under high temperature, sulfide-rich and re-challenge conditions (Example 5); assay type: cell-based, anaerobic sulfate-reducing bacteria (SRB); settings: 80° C., daily challenge with SRB and 10 ppm sulfide ion
Procedure: (§1) The synergy indexes reported in the following examples are calculated using the following equation: Synergy Index=Ca/CA+Cb/CB
(§2) Various methods known to those skilled in the art can be used for evaluating biocidal efficacy. In the examples below, aliquots of the treated samples are removed at predetermined time points and the concentration required to achieve a certain level or complete bacterial kill is determined by culture-based methods including serial dilution. In some examples, the method is based or adapted (e.g., for high temperature testing or for the presence of sulfide) from the methodology described in international application PCT/US08/075,755, filed Sep. 10, 2008, which is incorporated herein by reference.
Inside an anaerobic chamber, biocide solutions of DBNPA, CTAC, and DBNPA/CTAC combinations at various concentrations are prepared in a salt solution (3.1183 g of NaCl, 1.3082 mg of NaHCO3, 47.70 mg of KCl, 72.00 mg of CaCl2, 54.49 mg of MgSO4, 172.28 mg of Na2SO4, 43.92 mg of Na2CO3 in 1 L water). […] After heating at 80 C for 2 hours, biocidal efficacy is evaluated against the field SRB consortium at 40° C. for 2 h. The same samples, after heating for 1 day to 7 days at 80 C, are evaluated against the field SRB consortium at 40 C for 24 h. […]

[2] = test system: Psedomonas aeruginosa ATCC 10145 and Staphylococcus aureus ATCC 6538; experiment: MBC against aerobic bacteria, 37° C., 24 hour (Example 2); assay type: cell-based
Procedure: as §1, §2
A sterile NaCl solution (0.85%) is contaminated with Psedomonas aeruginosa ATCC 10145 and Staphylococcus aureus ATCC 6538 at a final bacterial concentration of ˜10^6 CFU/ml. Aliquots of this contaminated water are then treated with biocide solution (single or in combination) at various concentrations.

[3] = test system: oil field isolated anaerobic SRB consortium; experiment: MBC against anaerobic SRB consortium, 40° C., 24 hour (Example 1); assay type: cell-based, anaerobic sulfate-reducing bacteria (SRB)
Procedure: as §1, §2
Inside an anaerobic chamber, a deaerated sterile salt solution (3.1183 g of NaCl, 1.3082 mg of NaHCO3, 47.70 mg of KCl, 72.00 mg of CaCl2, 54.49 mg of MgSO4, 172.28 mg of Na2SO4, 43.92 mg of Na2CO3 in 1 L water) is contaminated with an oil field isolated anaerobic SRB consortium at final bacterial concentrations of 10^6-10^7 CFU/mL. Aliquots of this contaminated water are then treated with biocide solution (single or in combination) at various concentrations.

[4] = test system: mixed bacteria consortium (Pseudomonas aeruginosa ATCC 10145, Pseudomonas aeruginosa ATCC 15422, Enterobacter aerogenes ATCC 13048, Escherichia coli ATCC …); experiment: Ternary DBNPA, CTAC and bronopol combination, re-challenge test against mixed bacteria consortium (Example 6); assay type: cell-based, mixed aerobic bacteria; settings: for Dose required for >4 log10 bacterial reduction vs. control, CTAC: CTAC alone or CTAC part of DBNPA:bnpd:CTAC combination; for Dose required for >4 log10 bacterial reduction vs. control, DBNPA: DBNPA alone or DBNPA part of DBNPA:bnpd:CTAC combination; for Dose required for >4 log10 bacterial reduction vs. control, bnpd: bnpd alone or bnpd part of DBNPA:bnpd:CTAC combination
Procedure: as §1, §2
(§3) DBNPA, bronopol, and CTAC are added to a sterile solution of synthetic surface water (CaCl2 0.2203 g, MgSO4 0.1847 g, NaHCO3 0.1848 g, deionized water 1 L) both alone and in various combinations. An initial inoculum of a mixed bacteria consortium (Pseudomonas aeruginosa ATCC 10145, Pseudomonas aeruginosa ATCC 15422, Enterobacter aerogenes ATCC 13048, Escherichia coli ATCC 11229, Klebsiella pneumoniae ATCC 8308, Staphylococcus aureus ATCC 6538, Salmonella choleraesuis ATCC 10708) is added to each biocidal solution at a final concentration of 5×10^6 CFU/mL. After 2, 6 and 13 days, the biocidal solutions are re-challenged with the same bacteria consortium to a final concentration of 5×10^4 CFU/mL of additional bacteria. All treatments are incubated at ambient temperatures. The results are shown in Table 10 which reports the biocide concentrations required to achieve a ≧4 log10 kill reduction in microorganisms.

[5] = test system: oil field isolated anaerobic SRB consortium; experiment: Anaerobic bacteria under sulfide-rich and multiple challenge conditions (Example 4); assay type: cell-based, anaerobic sulfate-reducing bacteria (SRB); settings: room temperature, daily challenge with SRB and 10 ppm sulfide ion
Procedure: as §1
as §2, with “10, 2008, which is incorporated herein by reference.” left out
Inside an anaerobic chamber, biocide solutions of DBNPA, CTAC, and DBNPA/CTAC combinations at various concentrations are prepared in a salt solution (3.1183 g of NaCl, 1.3082 mg of NaHCO3, 47.70 mg of KCl, 72.00 mg of CaCl2, 54.49 mg of MgSO4, 172.28 mg of Na2SO4, 43.92 mg of Na2CO3 in 1 L water). […] The viable bacteria left in the mixtures is determined at different incubation times up to 7 days, using a serial dilution method. Bacterial log reduction is then calculated. The biocidal efficacy is determined by selecting the lowest biocide concentration required to achieve at least a 99.9% bacterial reduction for all three of the following time points: 2 hour, 1 day, and 7 days. Synergy index is then calculated.

[6] = test system: mixed bacteria consortium (Pseudomonas aeruginosa ATCC 10145, Pseudomonas aeruginosa ATCC 15422, Enterobacter aerogenes ATCC 13048, Escherichia coli ATCC …); experiment: Re-challenge test against aerobic mixed bacteria consortium (Example 3); assay type: cell-based; settings: ambient temperature; for Dose required for ≧4 log10 bacteria reduction (ppm), CTAC: CTAC alone or CTAC part of DBNPA/CTAC combination; for Dose required for ≧4 log10 bacteria reduction (ppm), DBNPA: DBNPA alone or DBNPA part of DBNPA/CTAC combination
Procedure: as §1, §2
as §3, with “DBNPA and” for “DBNPA, bronopol, and”, “CTAC is” for “CTAC are”, “g, DI” for “g, deionized”, “Table 7” for “Table 10”

[7] = CTAC alone or CTAC part of DBNPA/CTAC combination
[8] = Day 3 after initial inoculation
[9] = Day 27 after initial inoculation
[10] = Day 20 after initial inoculation
[11] = DBNPA alone or DBNPA part of DBNPA/CTAC combination
[12] = DBNPA alone or DBNPA part of DBNPA/HHT combination
[13] = DBNPA alone or DBNPA part of DBNPA/tris nitro combination
[14] = HHT alone or HHT part of DBNPA/HHT combination
[15] = tris nitro alone or tris nitro part of DBNPA/tris nitro combination

ClC=CC[N+]12CN3CN(CN(C3)C1)C2 [CTAC, 1-(3-chloroallyl)-3,5,7-triaza-1-azoniaadamantane]
Lowest biocide concentration required for ≧99.9% bacterial reduction for 2 h, 1 day, and 7 days (ppm), CTAC [1, 7]: 180 ppm | Dosage required for complete bacterial reduction (ppm), CTAC [2, 7]: >159 ppm | Dosage required for complete bacterial reduction (ppm), CTAC [3, 7]: 87.5 ppm | Dose required for >4 log10 bacterial reduction vs. control, CTAC [4, 8]: >750 | Dose required for >4 log10 bacterial reduction vs. control, CTAC [4, 9]: >750 | Lowest biocide concentration required for ≧99.9% bacterial reduction for 2 h, 1 day, and 7 days (ppm), CTAC [5, 7]: >360.0 ppm | Dose required for ≧4 log10 bacteria reduction (ppm), CTAC [6, 8]: >750 ppm | Dose required for ≧4 log10 bacteria reduction (ppm), CTAC [6, 10]: >750 ppm

N#CC(Br)(Br)C(N)=O [DBNPA, 2,2-dibromo-3-nitrilopropionamide]
Lowest biocide concentration required for ≧99.9% bacterial reduction for 2 h, 1 day, and 7 days (ppm), DBNPA [1, 11]: >120 ppm | Dosage required for complete bacterial reduction (ppm), DBNPA [2, 11]: 8.9 ppm | Dosage required for complete bacterial reduction (ppm), DBNPA [2, 12]: 8.9 ppm | Dosage required for complete bacterial reduction (ppm), DBNPA [2, 13]: 9.9 ppm | Dosage required for complete bacterial reduction (ppm), DBNPA [3, 11]: 9.1 ppm | Dosage required for complete bacterial reduction (ppm), DBNPA [3, 12]: 7.0 ppm | Dosage required for complete bacterial reduction (ppm), DBNPA [3, 13]: 8.9 ppm | Dose required for >4 log10 bacterial reduction vs. control, DBNPA [4, 8]: <12 | Dose required for >4 log10 bacterial reduction vs. control, DBNPA [4, 9]: >75 | Lowest biocide concentration required for ≧99.9% bacterial reduction for 2 h, 1 day, and 7 days (ppm), DBNPA [5, 11]: 60.0 ppm | Dose required for ≧4 log10 bacteria reduction (ppm), DBNPA [6, 8]: >167 ppm | Dose required for ≧4 log10 bacteria reduction (ppm), DBNPA [6, 10]: >250 ppm

OCCN1CN(CCO)CN(CCO)C1 [HHT, hexahydro-1,3,5-tris(2-hydroxyethyl)-s-triazine]
Dosage required for complete bacterial reduction (ppm), HHT [2, 14]: 94.2 ppm | Dosage required for complete bacterial reduction (ppm), HHT [3, 14]: 113.8 ppm

O=[N+]([O-])C(Br)(CO)CO [bnpd, 2-bromo-2-nitropropane-1,3-diol]
Dose required for >4 log10 bacterial reduction vs. control, bnpd [4, 8]: 32 | Dose required for >4 log10 bacterial reduction vs. control, bnpd [4, 9]: >200

O=[N+]([O-])C(CO)(CO)CO [tris nitro, tris(hydroxymethyl)nitromethane]
Dosage required for complete bacterial reduction (ppm), tris nitro [2, 15]: 104.6 ppm | Dosage required for complete bacterial reduction (ppm), tris nitro [3, 15]: 29.6 ppm
